Source: PMC10112232, “Comparison of Toxicities among Different Bumped Kinase Inhibitor Analogs for Treatment of Cryptosporidiosis” (Antimicrobial Agents and Chemotherapy, 2023)
pEC50, pIC50: −log10 of the molar value. Values after ≈ are worked out from the molar mass of the structure shown. Where two headings read alike, the source gives them in different places.

Experiments:
[1] = tested on: Cryptosporidium; parameters: method as in PMID 12423984, PMID 11398117, PMID 26568906; conditions: malnourished children (subtracting placebo efficacy); cited from earlier work
[2] = target: hERG (Homo sapiens, UniProt Q12809); conditions: cited from earlier work
Sequence of hERG (Q12809 whole entry): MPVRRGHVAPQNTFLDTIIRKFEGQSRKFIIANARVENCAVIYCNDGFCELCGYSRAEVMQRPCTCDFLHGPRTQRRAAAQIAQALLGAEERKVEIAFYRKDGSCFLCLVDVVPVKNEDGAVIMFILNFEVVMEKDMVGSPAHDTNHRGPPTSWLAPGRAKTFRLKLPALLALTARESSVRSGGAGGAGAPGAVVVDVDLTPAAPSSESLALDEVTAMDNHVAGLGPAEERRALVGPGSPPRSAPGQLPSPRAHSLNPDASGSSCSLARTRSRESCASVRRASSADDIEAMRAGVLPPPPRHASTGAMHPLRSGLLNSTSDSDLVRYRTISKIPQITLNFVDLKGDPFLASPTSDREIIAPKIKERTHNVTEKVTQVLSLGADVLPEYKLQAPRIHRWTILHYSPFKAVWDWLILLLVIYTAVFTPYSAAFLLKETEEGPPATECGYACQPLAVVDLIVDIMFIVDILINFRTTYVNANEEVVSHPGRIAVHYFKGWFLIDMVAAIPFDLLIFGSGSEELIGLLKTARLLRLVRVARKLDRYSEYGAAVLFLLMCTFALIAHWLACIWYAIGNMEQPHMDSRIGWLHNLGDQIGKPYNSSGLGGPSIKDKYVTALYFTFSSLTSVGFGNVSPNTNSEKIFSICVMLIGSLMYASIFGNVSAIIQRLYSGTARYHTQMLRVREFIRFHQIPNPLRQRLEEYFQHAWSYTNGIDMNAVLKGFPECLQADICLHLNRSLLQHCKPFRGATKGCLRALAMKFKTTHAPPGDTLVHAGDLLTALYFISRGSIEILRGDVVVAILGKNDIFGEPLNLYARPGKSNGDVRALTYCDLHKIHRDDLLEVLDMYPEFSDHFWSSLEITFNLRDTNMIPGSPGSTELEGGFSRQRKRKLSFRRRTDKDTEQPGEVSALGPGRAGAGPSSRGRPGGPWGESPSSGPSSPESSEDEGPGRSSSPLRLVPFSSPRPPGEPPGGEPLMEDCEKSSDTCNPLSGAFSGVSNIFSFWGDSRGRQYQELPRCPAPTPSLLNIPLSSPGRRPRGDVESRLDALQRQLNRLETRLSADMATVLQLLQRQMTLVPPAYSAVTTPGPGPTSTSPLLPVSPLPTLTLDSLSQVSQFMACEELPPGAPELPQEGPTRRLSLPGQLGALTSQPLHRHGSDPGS

[3] = Cardiovascular testing in anesthetized dogs; assay type: in vivo, dog; conditions: dogs (data not shown)
Excerpt: (§1) Methods for synthesis of BKIs ([17], [23]), efficacy against Nluc expressing C. parvum in infected adult IFN-γ KO mice ([6], [9]), in vivo mouse GI tract tissue exposure by LC/MS-MS analysis ([18], [28]), PK analysis of mouse plasma and brain tissue BKI concentrations by LC/MS-MS analysis ([29]), in vivo rat and dog cardiotoxicity screen ([30]), efficacy against IOWA-II strain C. parvum in infected neonatal calves ([13]), efficacy against C. hominis in infected piglets ([12]), in vitro inhibition of C. parvum CDPK1 (CpCDPK1) and human tyrosine kinase SRC (HsSRC) activity ([31]), in vitro inhibition of hERG ([32]), Nluc expressing C. parvum in vitro growth inhibition in infected HCT-8 cells ([6]), in vitro cytotoxicity in CRL-8155 and HepG2 cells ([29]), and mouse locomotor activity box ([33], [34]) have all been previously described. Analytes were measured by LC/MS-MS on an Acquity ultra performance liquid chromatography (UPLC) system in tandem with a Xevo TQ-S mass spectrometer (Waters, Milford, MA, USA).

[4] = rat, in vivo; cited from earlier work
[5] = Aqueous solubility; assay type: physicochemical
Excerpt: TABLE 1 In vitro properties of bumped kinase inhibitors^a | column: Solubility at pH 2 (μM); Solubility at pH 6.5 (μM)

[6] = tested on: Nluc expressing C. parvum; assay: Nluc expressing C. parvum in vitro growth inhibition in infected HCT-8 cells; assay type: cell-based; conditions: Cryptosporidium parvum
Excerpt: as §1

[7] = target: human tyrosine kinase SRC (HsSRC) (Homo sapiens, UniProt P12931); assay: In vitro inhibition of HsSRC; assay type: biochemical; conditions: read-out: HsSR IC50
Sequence of human tyrosine kinase SRC (HsSRC) (P12931 whole entry): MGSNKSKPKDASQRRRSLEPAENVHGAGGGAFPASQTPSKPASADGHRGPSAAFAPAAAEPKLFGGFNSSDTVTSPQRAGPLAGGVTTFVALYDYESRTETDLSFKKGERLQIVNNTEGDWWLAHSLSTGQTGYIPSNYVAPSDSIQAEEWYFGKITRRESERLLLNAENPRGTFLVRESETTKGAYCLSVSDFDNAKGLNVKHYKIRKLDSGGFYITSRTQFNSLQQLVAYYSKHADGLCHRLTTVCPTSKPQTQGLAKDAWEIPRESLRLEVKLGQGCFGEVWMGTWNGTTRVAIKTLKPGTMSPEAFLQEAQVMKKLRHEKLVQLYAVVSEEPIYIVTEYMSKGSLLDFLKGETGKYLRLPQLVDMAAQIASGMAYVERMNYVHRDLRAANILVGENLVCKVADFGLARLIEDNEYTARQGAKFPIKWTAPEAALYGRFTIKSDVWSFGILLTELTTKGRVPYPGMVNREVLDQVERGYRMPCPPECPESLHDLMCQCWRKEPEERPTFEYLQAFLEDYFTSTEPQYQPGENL
Excerpt: as §1

[8] = In vitro cytotoxicity in HepG2 cells; assay type: cell-based; conditions: human
Excerpt: as §1

[9] = In vitro cytotoxicity in CRL-8155 cells; assay type: cell-based; conditions: human
Excerpt: as §1

[10] = target: T1, C. parvum calcium dependent protein kinase 1 (CpCDPK1) (Cryptosporidium parvum, UniProt A3FQ16); assay: In vitro inhibition of CpCDPK1; assay type: biochemical
T1 sequence (A3FQ16 1-538): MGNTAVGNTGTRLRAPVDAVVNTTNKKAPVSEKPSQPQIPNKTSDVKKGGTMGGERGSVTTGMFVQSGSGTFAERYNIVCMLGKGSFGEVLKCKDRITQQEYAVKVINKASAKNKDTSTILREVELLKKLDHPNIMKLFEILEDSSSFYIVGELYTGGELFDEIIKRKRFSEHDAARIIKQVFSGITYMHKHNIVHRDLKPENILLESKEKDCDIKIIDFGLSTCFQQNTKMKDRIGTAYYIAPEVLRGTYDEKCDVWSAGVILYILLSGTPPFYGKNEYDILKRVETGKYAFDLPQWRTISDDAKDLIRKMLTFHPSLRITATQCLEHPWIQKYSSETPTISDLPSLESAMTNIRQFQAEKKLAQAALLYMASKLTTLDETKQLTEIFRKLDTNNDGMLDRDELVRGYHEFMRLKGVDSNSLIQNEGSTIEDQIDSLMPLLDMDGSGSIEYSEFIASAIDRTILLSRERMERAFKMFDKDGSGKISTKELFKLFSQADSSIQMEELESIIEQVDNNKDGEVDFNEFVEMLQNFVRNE
Excerpt: as §1

SMILES: CC(=O)Oc1ccccc1C(=O)Nc1ncc([N+](=O)[O-])s1 [Nitazoxanide]
- efficacy [1]: about 30%

SMILES: CCOc1ccc2cc(-c3nn(CC4CCN(C)CC4)c4ncnc(N)c34)ccc2n1 [BKI-1369]
- cardiotoxicity in the in vitro hERG assay [2]: Cardiotoxicity was additionally seen
- cardiotoxicity in vivo [3]: Cardiotoxicity was additionally seen
- cardiotoxicity in vivo [4]: Cardiotoxicity was additionally seen

SMILES: CCOc1ccc2cc(-c3nn(CC4CCN(C)CC4)c4ncnc(N)c34)ccc2c1 [BKI-1294]
- inhibition of hERG in vitro [2]: submicromolar range

SMILES: CC(C)(CCO)n1nc(-c2ccc3cc(O)ccc3c2)c(C(N)=O)c1N [1770-M5]
- solubility ([5]; aqueous medium at pH 2, pH 2, simulated gastric fluid, read-out: Solubility at pH 2): 89 µM (≈ 31.5 µg/mL)
- solubility ([5]; aqueous medium at pH 6.5, pH 6.5, aqueous buffer, read-out: Solubility at pH 6.5): > 100 µM
- pEC50 [6]: 5.68
- pIC50 [7]: 5.27
- CC50 [8]: > 80 µM
- CC50 [9]: > 80 µM
- pIC50 [10]: 7.74
